Data from article PMC5923171, “Novel Zinc-Attenuating Compounds as Potent Broad-Spectrum Antifungal Agents with In Vitro and In Vivo Efficacy” (Antimicrobial Agents and Chemotherapy, 2018).
Converted amounts (≈) assume the structure as drawn.

Legend:
[1] = Potentiometric titration, deprotonation constant; type: physicochemical; conditions: DMSO-water (70:30, vol/vol), 25°C, 0.1 M NaClO4
Description: (§1) The Zn^2+-binding properties of ZAC307 and ZAC989 were further evaluated using a potentiometric assay, where pH is measured as a function of base (NaOH) added to the compound in either the absence or presence of metal. […] To determine the deprotonation constant, a solution of 1 mM ZAC307 or ZAC989 was titrated with 0.3 M NaOH at constant ionic strength (Fig. 2A and B). In a second run, the same titration was performed in the presence of 0.5 eq of Zn^2+ for ZAC307 and ZAC989. A shift in the pH curve in the presence of the metal (ZAC307, 0.5 eq of Zn^2+ [Fig. 2A]) compared to the absence of the metal (ZAC307 [Fig. 2A]) indicates binding of Zn^2+ to the compound. The measured pH data were analyzed with the Hyperquad program suite, taking into account all relevant equilibrium constants, including also the constants for metal hydroxylation. The analysis provides the pKa values and metal complex stability constants, as well as ligand-metal complex speciation calculation, indicating how many ZAC molecules are involved in coordinating the Zn^2+ ion at different pH values. […] ZAC989 bound copper with the formation constants log β1, log β2, and log β3 of 7.83, 13.37, and 20.62, respectively. The most dominant ZAC989-copper stoichiometry was a 3:1 stoichiometry (Fig. 2E).
Potentiometric measurements were carried out in DMSO-water (70:30, vol/vol) at 25°C as described previously ([22]). […]

[2] = Potentiometric titration, ligand-Zn(II) complex formation; type: binding; conditions: DMSO-water (70:30, vol/vol), 0.5 eq of Zn^2+
Description: as §1
(§2) Potentiometric measurements were carried out in DMSO-water (70:30, vol/vol) at 25°C as described previously ([22]). Titrations were performed with a pH meter (Denver Instruments) utilizing a glass electrode with AgCl reference filled with 3.0 M KCl. The electrode was equilibrated in DMSO-water (70:30, vol/vol) for at least 1 h before use. All experiments were performed at a constant ionic strength (0.1 M NaClO4). Three milliliters of a solution containing 1 mM compound was titrated with 0.3 M NaOH by manual additions in 1- to 5-μl increments with magnetic stirring. The metal-ligand binding constants were obtained from titrations of the metal complex solutions prepared in a 1:2 metal-to-ligand ratio. The titration data were refined by the nonlinear least-squares refinement program Hyperquad2013 ([37]) to determine the deprotonation and stability constants.

[3] = Potentiometric titration, ligand-copper complex formation; type: binding; conditions: for copper binding (in words): potentiometric titration with CuSO4
Description: as §1, §2

C. glabrata ATCC 90030 = test: Antifungal susceptibility testing (MIC); type: cell-based, Candida glabrata; conditions: Nakaseomyces glabratus, ATCC90030; at least 50% growth inhibition, RPMI, 24 h, 34°C
Description: (§3) Antifungal susceptibility testing was carried out as described previously ([38], [39]), with a few modifications. Briefly, for each yeast or mold growth inhibition assay, frozen stocks of yeast cells or spores were diluted to a final concentration of 0.5 × 10^5 to 2.5 × 10^5 CFU/ml in sterile water. ZAC989, ZAC307, and ZAC623 were dissolved in DMSO to 10 mM stocks from which half-log serial dilutions were prepared. Growth assays were subsequently performed by pipetting 3 μl of compound dissolved in DMSO (giving a final concentration of 1.5% DMSO), 100 μl of cell-spore suspension, and 97 μl of 2× RPMI medium (20.8 g/liter of RPMI 1640 medium, 69.06 g/liter of morpholinepropanesulfonic acid [MOPS], 36 g/liter of glucose) into a microtiter plate that was incubated for 24 h (yeasts) or 48 to 72 h (molds) at 34°C. Fungal growth was determined spectrophotometrically by optical density reading of each well at a wavelength of 492 nm on a Victor X5 (Perkin-Elmer) plate reader. […] Standard errors between repeated experiments were generally below 5%. The growth effect of exogenous addition of various divalent metals was evaluated by performing the antifungal susceptibility assay in the presence of 5 μM ZAC989 or ZAC307 and with increasing concentrations (0.003 to 50 μM) of ZnSO4, CuSO4, (NH4)2Fe(SO4)2, MgCl2, and CaCl2.

C. glabrata Cg003 = test: Antifungal susceptibility testing (MIC); type: cell-based, Candida glabrata; conditions: Nakaseomyces glabratus, CG003, 24 h
Description: as §3

[4] = test system: wild-type A. fumigatus strain (AF14); test: Growth capacity in sRPMI zinc-limiting medium, 24-well plates; type: cell-based, Aspergillus fumigatus; conditions: 75 μM compound, 44 h, 37°C
Description: The ZACs inhibited these molds and mucorales isolates in a range from 0.4 μg/ml to 5.4 μg/ml (Table 3). To assess the capacity of the ZACs to inhibit A. fumigatus growth in the presence of zinc, 1-ml aliquots of sRPMI zinc-limiting medium (RPMI 1640 medium [R8755; Sigma] supplemented with 10 μM FeSO4·7H2O, 1 μM CuSO4·5H2O, and 1 μM MnCl2·H2O) or this medium supplemented with 2, 5, or 50 μM zinc were inoculated with 10^5 conidia of a wild-type A. fumigatus strain (AF14), dispensed in 24-well culture plates, and incubated in the presence of either ZAC307 or ZAC989 at a final concentration 21 μg/ml or 27 μg/ml (equivalent to 75 μM), respectively (Fig. 5A).
Growth capacity experiments with A. fumigatus strains AF14, AF54, AF48, AF732, and AF731 were performed in 24-well flat-bottomed tissue culture plates (35-3047; Falcon). A stock solution of 10 mM TPEN (P4413; Sigma) was prepared in pure ethanol. For these experiments, 5 mM stock solutions of ZAC307 and ZAC989 were prepared by dissolving each compound in 80% (vol/vol) ethanol. A 0.5 M stock solution of Na2EDTA·2H2O (1.08421.1000; Merck) was prepared in sterile water. […] To quantitate mycelial growth, each plate was scanned in an Agfa SnapScan 1236s scanner, and the intensity of the wells was quantified using the open-source image processing program Image J2. The data were represented and analyzed with Prism software 7.0.

[5] = DMSO-water (70:30, vol/vol), CuSO4

| Structure (SMILES) | pKa [1] | formation constant log β1 (1:1 ligand-Zn(II) complex) [2] | formation constant log β2 (2:1 ligand-Zn(II) complex) [2] | formation constant log β3 (3:1 ligand-Zn(II) complex) [2] | formation constant log β1 (copper) [3, 5] | formation constant log β2 (copper) [3, 5] | formation constant log β3 (copper) [3, 5] | copper binding (in words) [3] | MIC (C. glabrata ATCC 90030) [µg/mL] | MIC (C. glabrata Cg003) [µg/mL] | reduction of growth capacity, 2 μM zinc plus compound compared to 50 μM zinc [4] [fold] |
| --- | --- | --- | --- | --- | --- | --- | --- | --- | --- | --- | --- |
| Cc1cc(O)n(-c2cc(N3CC[C@H](Oc4cnccc4C#N)C3)ncn2)n1 [ZAC989, 3-[(3S)-1-[6-(5-hydroxy-3-methyl-pyrazol-1-yl)pyrimidin-4-yl]pyrrolidin-3-yl]oxy-pyridine-4-carbonitrile] | 7.7 | 7.35 | 14.30 | 19.71 | 7.83 | 13.37 | 20.62 | chelates copper | 0.9 (≈ 2.48 µM) | 0.6 (≈ 1.65 µM) | 3.9 |
| CN(C)c1cc(-n2nc(-c3ccccc3)cc2O)ncn1 [ZAC307, 2-[6-(dimethylamino)pyrimidin-4-yl]-5-phenyl-pyrazol-3-ol] | 6.84 | 7.47 | 13.27 | 18.14 | – | – | – | binds copper | 0.2 (≈ 0.711 µM) | 0.2 (≈ 0.711 µM) | 2.9 |
